This passage reports IC50 results from ChEMBL document CHEMBL1151066, “Inhibitors of MMP-1: an examination of P1 C gem-disubstitution in the N-carboxyalkylamine and glutaramide carboxylate series” (Bioorg Med Chem Lett, 1996).

The test has as its target T1, Interstitial collagenase (Homo sapiens, UniProt P03956).
T1 sequence (P03956 whole entry): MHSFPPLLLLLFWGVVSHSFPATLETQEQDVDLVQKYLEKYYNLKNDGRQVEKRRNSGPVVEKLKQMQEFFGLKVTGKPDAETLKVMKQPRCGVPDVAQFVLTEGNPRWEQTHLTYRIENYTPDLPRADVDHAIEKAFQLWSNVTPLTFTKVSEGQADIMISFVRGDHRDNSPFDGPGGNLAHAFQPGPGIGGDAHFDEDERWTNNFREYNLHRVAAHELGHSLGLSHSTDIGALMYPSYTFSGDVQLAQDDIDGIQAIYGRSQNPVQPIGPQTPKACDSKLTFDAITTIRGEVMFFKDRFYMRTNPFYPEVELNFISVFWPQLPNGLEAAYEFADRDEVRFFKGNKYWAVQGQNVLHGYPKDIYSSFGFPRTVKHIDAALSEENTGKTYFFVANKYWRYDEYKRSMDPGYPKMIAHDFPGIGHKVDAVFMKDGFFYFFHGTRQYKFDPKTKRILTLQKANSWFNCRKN
The test is described as follows: Inhibitory activity against Matrix Metallo Proteinase-1 (MMP-1).
`CNC(=O)[C@H](Cc1ccc(OC)cc1)NC(=O)C1(CC(CCN2C(=O)c3ccccc3C2=O)C(=O)O)CCCCC1` (mixture of isomers) had an IC50 of 3200 nM.
Take `CNC(=O)[C@H](Cc1ccc(OC)cc1)NC(=O)C1(CC(CCN2C(=O)c3cc4ccccc4cc3C2=O)C(=O)O)CCCC1` (stereo in doubt; form 1): inhibition was half-maximal at 940 nM (IC50).
The same measure for `O=C(O)C(CCN1C(=O)c2cc3ccccc3cc2C1=O)CC1(C(=O)NCCN2CCOCC2)CCCCC1` (racemic): 12000 nM.
Compound `CNC(=O)[C@H](Cc1ccc(OC)cc1)NC(=O)C1(NC(CCN2C(=O)c3cc4ccccc4cc3C2=O)C(=O)O)CCCCC1` (stereo in doubt; form 2) displayed an IC50 of 90 nM. This IC50 lies about 130-fold lower than the previous one.
On to `CNC(=O)[C@H](Cc1ccc(OC)cc1)NC(=O)[C@H](CC(C)C)N[C@H](CCN1C(=O)c2cc3ccccc3cc2C1=O)C(=O)O`, for which the IC50 turned out to be 23 nM. Compared with the last compound, the IC50 is about 3.9-fold lower.
The figure for `CNC(=O)[C@H](Cc1ccc(OC)cc1)NC(=O)[C@H](CC(C)C)C[C@@H](CCN1C(=O)c2cc3ccccc3cc2C1=O)C(=O)O` is 23 nM; for `CNC(=O)[C@H](Cc1ccc(OC)cc1)NC(=O)C1(CC(CCN2C(=O)c3cc4ccccc4cc3C2=O)C(=O)O)CCCCC1` (stereo in doubt; form 1) it is 38 nM.
The figure for `CCC(CC1(C(=O)N[C@@H](Cc2ccc(OC)cc2)C(=O)NC)CCCCC1)C(=O)O` (mixture of isomers) is > 30000 nM; for `CNC(=O)[C@H](Cc1ccc(OC)cc1)NC(=O)C1(CC(CCN2C(=O)c3cc4ccccc4cc3C2=O)C(=O)O)CCCCC1` (stereo in doubt; form 2) it is 140 nM.
With `O=C(O)C(CCN1C(=O)c2cc3ccccc3cc2C1=O)CC1(C(=O)NCc2ccccc2)CCCCC1` (racemic), it took 3000 nM to reach half-maximal inhibition (IC50). Against the preceding compound, the IC50 is about 21-fold higher.
The figure for `CNC(=O)[C@H](Cc1ccccc1)NC(=O)[C@H](CC(C)C)N[C@H](CCN1C(=O)c2cc3ccccc3cc2C1=O)C(=O)O` is 34 nM.
The figure for `CNC(=O)[C@H](Cc1ccc(OC)cc1)NC(=O)C1(CC(CCN2C(=O)c3ccc(OC)cc3C2=O)C(=O)O)CCCCC1` (mixture of isomers) is 570 nM; for `CNC(=O)[C@H](Cc1ccc(OC)cc1)NC(=O)C1(CC(CCN2C(=O)c3cc4ccccc4cc3C2=O)C(=O)O)CCCC1` (stereo in doubt; form 2) it is 260 nM; for `CNC(=O)[C@H](Cc1ccc(OC)cc1)NC(=O)C1(NC(CCN2C(=O)c3cc4ccccc4cc3C2=O)C(=O)O)CCCCC1` (stereo in doubt; form 1) it is 970 nM.
The figure for `CCCOc1ccc2c(c1)C(=O)N(CCC(CC1(C(=O)N[C@@H](Cc3ccc(OC)cc3)C(=O)NC)CCCCC1)C(=O)O)C2=O` (mixture of isomers) is 140 nM.
